From ChEMBL document CHEMBL3044968, “N-palmitoylethanolamide derivatives: synthesis and studies on anticonvulsant and antidepressant activities” (Med Chem Res, 2011)
The source made the active and inactive calls. The rule behind the calls is not given here.

Assays:
[1] = system: Mus musculus; assay: Neurotoxicity in Mus musculus Kunming (mouse) at 100 mg/kg, ip measured after 4 hr by rotarod test; type: toxicity, organism-based; design: dose 100 mg/kg, route intraperitoneal; conditions: in vivo
[2] = system: Mus musculus; assay: Antidepressant activity in Mus musculus Kunming (mouse) assessed as reduction in duration of immobility at 10 mg/kg, ip measured after 30 min by forced swim test; type: functional; conditions: 0.5 h, route intraperitoneal
[3] = system: Mus musculus; assay: Neurotoxicity in Mus musculus Kunming (mouse) at 30 mg/kg, ip measured after 4 hr by rotarod test; type: toxicity, organism-based; design: dose 30 mg/kg, route intraperitoneal; conditions: in vivo
[4] = system: Mus musculus; assay: Anticonvulsant activity in Mus musculus Kunming (mouse) assessed as protection against maximal electroshock-induced seizure at 100 mg/kg, ip measured after 4 hr; type: functional, organism-based; design: dose 100 mg/kg
[5] = system: Mus musculus; assay: Anticonvulsant activity in Mus musculus Kunming (mouse) assessed as protection against maximal electroshock-induced seizure at 30 mg/kg, ip measured after 4 hr; type: functional, organism-based; design: dose 30 mg/kg
[6] = system: Mus musculus; assay: Anticonvulsant activity in Mus musculus Kunming (mouse) assessed as protection against maximal electroshock-induced seizure at 300 mg/kg, ip measured after 30 min; type: functional, organism-based; design: dose 300 mg/kg
[7] = system: Mus musculus; assay: Neurotoxicity in Mus musculus Kunming (mouse) at 30 mg/kg, ip measured after 30 min by rotarod test; type: toxicity, organism-based; design: dose 30 mg/kg, route intraperitoneal; conditions: in vivo, 0.5 h
[8] = system: Mus musculus; assay: Neurotoxicity in Mus musculus Kunming (mouse) at 100 mg/kg, ip measured after 30 min by rotarod test; type: toxicity, organism-based; design: dose 100 mg/kg, route intraperitoneal; conditions: in vivo, 0.5 h
[9] = system: Mus musculus; assay: Neurotoxicity in Mus musculus Kunming (mouse) at 300 mg/kg, ip measured after 4 hr by rotarod test; type: toxicity, organism-based; design: dose 300 mg/kg, route intraperitoneal; conditions: in vivo
[10] = system: Mus musculus; assay: Anticonvulsant activity in Mus musculus Kunming (mouse) assessed as protection against maximal electroshock-induced seizure at 30 mg/kg, ip measured after 30 min; type: functional, organism-based; design: dose 30 mg/kg
[11] = system: Mus musculus; assay: Anticonvulsant activity in Mus musculus Kunming (mouse) assessed as protection against maximal electroshock-induced seizure at 100 mg/kg, ip measured after 30 min; type: functional, organism-based; design: dose 100 mg/kg
[12] = system: Mus musculus; assay: Neurotoxicity in Mus musculus Kunming (mouse) at 300 mg/kg, ip measured after 30 min by rotarod test; type: toxicity, organism-based; design: dose 300 mg/kg, route intraperitoneal; conditions: in vivo, 0.5 h
[13] = system: Mus musculus; assay: Anticonvulsant activity in Mus musculus Kunming (mouse) assessed as protection against maximal electroshock-induced seizure at 300 mg/kg, ip measured after 4 hr; type: functional, organism-based; design: dose 300 mg/kg

Row | SMILES | Activity [1] | inhibition in vivo at 10 mg/kg [2] | Activity [3] | Activity [4] | Activity [5] | Activity [6] | Activity [7] | Activity [8] | Activity [9] | Activity [10] | Activity [11] | Activity [12] | Activity [13]
1 | CCCCCCCCCCCCCCCCCC(=O)N(CC)CC [N,N-DIETHYLSTEARAMIDE] | Non-toxic | 18.4% | Non-toxic | inactive | inactive | inactive | Non-toxic | Non-toxic | Non-toxic | inactive | inactive | Non-toxic | inactive
2 | O=C(/C=C/c1ccccc1)NCCCO | Non-toxic | 23.4% | Non-toxic | inactive | inactive |  | Non-toxic | Non-toxic | Non-toxic | inactive | inactive | Toxic | inactive
3 | CN(CCO)C(=O)/C=C/c1ccccc1 | Non-toxic | 8.41% | Non-toxic | inactive | inactive | Active | Non-toxic | Non-toxic | Non-toxic | inactive |  | Toxic | 
4 | CCCCCCCCCCCCCCCC(=O)NCCCO [N-(3-HYDROXYPROPYL)PALMITAMIDE] | Non-toxic | 22.2% | Non-toxic | inactive | inactive | inactive | Non-toxic | Non-toxic | Non-toxic | inactive | inactive | Non-toxic | inactive
5 | CNCCC(Oc1ccc(C(F)(F)F)cc1)c1ccccc1 (stereo not given) [FLUOXETINE] |  | 39.4% |  |  |  |  |  |  |  |  |  |  | 
6 | CCCCCCCCCCCCCCCCCC(=O)NCCCO | Non-toxic | 14.1% | Non-toxic | inactive | inactive | inactive | Non-toxic | Non-toxic | Non-toxic | inactive | inactive | Non-toxic | inactive
7 | CCCCCCCCCCCCCCCCCC(=O)NCCO [N-(2-HYDROXYETHYL)STEARAMIDE] | Non-toxic | 5.65% | Non-toxic | inactive | inactive | Active | Non-toxic | Non-toxic | Non-toxic | Active | Active | Non-toxic | inactive
8 | CCCCCCCCCCCCCCCCCC(=O)N(C)CCO | Non-toxic | 22% | Non-toxic | inactive | inactive | inactive | Non-toxic | Non-toxic | Non-toxic | inactive | inactive | Non-toxic | inactive
9 | CCCCCCCCCCCCCCCC(=O)N(CC)CC [HEXADECANOIC ACID DIETHYLAMIDE] | Non-toxic | 17.3% | Non-toxic | inactive | inactive | inactive | Non-toxic | Non-toxic | Non-toxic | inactive | inactive | Non-toxic | inactive
10 | CCCCCCCCCCCCCCCC(=O)NCCO [PALMIDROL] | Non-toxic | 6.25% | Non-toxic | inactive | inactive | Active | Non-toxic | Non-toxic | Non-toxic |  | Active | Non-toxic | inactive
11 | CCN(CC)C(=O)/C=C/c1ccccc1 [N,N-DIETHYLCINNAMAMIDE] | Non-toxic | 18.2% | Non-toxic |  | inactive | Active | Non-toxic | Non-toxic | Non-toxic | inactive |  | Toxic | 
12 | CCCCCCCCCCCCCCCC(=O)N(CCO)CCO | Non-toxic | 26.3% | Non-toxic | inactive | inactive | inactive | Non-toxic | Non-toxic | Non-toxic | inactive | inactive | Non-toxic | inactive
13 | O=C(/C=C/c1ccccc1)NCCO [IDROCILAMIDE] | Non-toxic | 25.9% | Non-toxic | inactive | inactive | Active | Non-toxic | Non-toxic | Non-toxic | Active | Active | Toxic | inactive
14 | CN(C)C(=O)/C=C/c1ccccc1 [N,N-DIMETHYLCINNAMAMIDE] | Non-toxic | 20% | Non-toxic |  | inactive | Active | Non-toxic | Non-toxic | Non-toxic | inactive |  | Toxic | 
